Test results published in patent US11766426B2, “Semi-solid topical composition containing pirfenidone and modified diallyl disulfide oxide (M-DDO) for eliminating or preventing acne” (Excalibur Pharmaceuticals, Inc., priority 2012, dated 2023).

What was measured:
Assay type in all cases: cell-based
[1] = tested on: Klebsiella pneumoniae ATCC 10031; experiment: Microbial challenge, ARj.; details: contact time 30 seconds
From the text: (§1) Tables 1, 2, 3 and 4 (shown hereinafter) present the information obtained after conducting microbiological tests, also known as antimicrobial challenge, of M-DDO against various bacteria, showing its powerful anti-bacterial capacity. Moreover, Table 5 (shown hereinafter) presents the results of M-DDO against Propionibacterium acnes.
(§2) Various antimicrobial challenges have been studied in various institutions in order to evaluate the efficacy of M-DDO [Pirfenidone and M-DDO] against the most frequent microorganisms susceptible to develop resistance and against some microorganisms that may cause grater problem with regard to their eradication because of spore production.
(§3) The initial challenges are conducted with collection microorganisms universally requested for evidencing the efficacy of a product. […] Moreover, results of studies conducted by a company authorized by the authorities to perform challenge studies show results that are similar to the results obtained in the test conducted at UNAM, UAEM and in our laboratory (Grupo Medifarma)(Tables 1, 2 and 3).

[2] = tested on: Candida albicans ATCC 10231; experiment: Microbial challenge, ARj.; details: contact time 30 seconds
From the text: as §1, §2, §3

[3] = tested on: microorganisms isolated from hospitalized patients; experiment: Challenges with microorganisms isolated from hospitalized patients, summary; details: 30 second contact
Experimental: (§4) A second type of challenges were performed at the Universidad Autónoma del Estado de Morelos with microorganisms collected from hospitalized patients and thus said microorganisms had already been in contact with antimicrobial agents and could show resistance (Table 4).

[4] = tested on: Salmonella typhi CA-C001; experiment: Microbial challenge, UNAM; details: contact time 30 seconds
From the text: as §1, §2, §3

[5] = tested on: Salmonella typhi; experiment: Challenge with microorganisms collected from hospitalized patients, Universidad Autónoma del Estado de Morelos; details: contact time 30 seconds; isolate from hospitalized patients; UAEM
Experimental: as §1, §4

[6] = tested on: Escherichia coli; experiment: as above; details: contact time 30 seconds; isolate from hospitalized patients; UAEM
Experimental: as §1, §4

[7] = tested on: Serratia marcenses; experiment: as above; details: contact time 30 seconds; isolate from hospitalized patients; UAEM
Experimental: as §1, §4

[8] = tested on: Salmonella enteritidis; experiment: as above; details: contact time 30 seconds; isolate from hospitalized patients; UAEM
Experimental: as §1, §4

[9] = tested on: Enterobacter faecalis; experiment: as above; details: contact time 30 seconds; isolate from hospitalized patients; UAEM
Experimental: as §1, §4

[10] = tested on: Staphylococcus aureus; experiment: as above; details: contact time 30 seconds; isolate from hospitalized patients; UAEM
Experimental: as §1, §4

[11] = tested on: Enterobacter cloacae; experiment: as above; details: contact time 30 seconds; isolate from hospitalized patients; UAEM
Experimental: as §1, §4

[12] = tested on: collection microorganisms; experiment: Microbial challenge studies at the Universidad Nacional Autónoma de México, summary
Experimental: as §2, §3

[13] = tested on: Propionibacterium acnes; experiment: Antimicrobial action of Pirfenidone and M-DDO gel
From the text: as §1

[14] = tested on: Escherichia coli ATCC 10536; experiment: Microbial challenge, Grupo Medifarma; details: contact time 30 seconds
From the text: as §1, §2, §3

[15] = tested on: Klebsiella pneumoniae ATCC 10031; experiment: Microbial challenge, Grupo Medifarma; details: contact time 30 seconds
From the text: as §1, §2, §3

[16] = tested on: Escherichia coli ATCC 11229; experiment: Microbial challenge, Grupo Medifarma; details: contact time 30 seconds
From the text: as §1, §2, §3

[17] = tested on: Proteus vulgaris ATCC 6380; experiment: Microbial challenge, Grupo Medifarma; details: contact time 30 seconds
From the text: as §1, §2, §3

[18] = tested on: Staphylococcus epidermidis ATCC 12228; experiment: Microbial challenge, Grupo Medifarma; details: contact time 30 seconds
From the text: as §1, §2, §3

[19] = tested on: Staphylococcus aureus ATCC 6538; experiment: Microbial challenge, Grupo Medifarma; details: contact time 30 seconds
From the text: as §1, §2, §3

[20] = tested on: Pseudomonas aeruginosa ATCC 9027; experiment: Microbial challenge, Grupo Medifarma; details: contact time 30 seconds
From the text: as §1, §2, §3

[21] = tested on: Candida albicans ATCC 10231; experiment: Microbial challenge, Grupo Medifarma; details: contact time 30 seconds
From the text: as §1, §2, §3

Substance: [1,2-diallyl-1-(5-methyl-tetrahydro-2H-pyran-2-yloxy)disulfonium]+6-[(benzyl, methyl, octylammonium) (hydroxymethylamin)(methylamin)]-tetrahydro-2H-pyran-3-oxy] chloride [M-DDO]
- elimination of the microbial charge [1]: 100%
- elimination of the microbial charge [2]: 100%
- reduction of the microbial charge [3]: at least 99.17%
- elimination of the microbial charge [4]: 99.999%
- reduction of the microbial charge [5]: 99.170%
- reduction of the microbial charge [6]: 99.961%
- reduction of the microbial charge [7]: 100%
- reduction of the microbial charge [8]: 100%
- reduction of the microbial charge [9]: 99.972%
- reduction of the microbial charge [10]: 99.999%
- reduction of the microbial charge [11]: 100%
- elimination of the microbial charge [12]: 99.999%
- Percentage of reduction of bacteria viability (%) ([13]; exposition time 30 sec): 99.999%
- Percentage of reduction of bacteria viability (%) ([13]; exposition time 60 sec): 99.999%
- Percentage of reduction of bacteria viability (%) ([13]; exposition time 15 min): 100%
- elimination of microorganisms [14]: 100%
- elimination of microorganisms [15]: 100%
- elimination of microorganisms [16]: 100%
- elimination of microorganisms [17]: 100%
- elimination of microorganisms [18]: 100%
- elimination of microorganisms [19]: 100%
- elimination of microorganisms [20]: 100%
- elimination of microorganisms [21]: 100%
